From US12698507B2, “Methods and compositions for conferring and/or enhancing herbicide tolerance using protoporphyrinogen IX oxidase of various cyanobacteria or variant thereof” (FarmHannong Co., Ltd., priority 2019, dated 2026)

Tests used:
[1] = biological target: Thermosynechococcus elongatus PKUAC-SCTE542 protoporphyrinogen IX oxidase CyPPO19 (SEQ ID NO: 1) variant A167C (MBP fusion) (Thermosynechococcus sichuanensis, UniProt A0A7D6JSC1, A167C); assay: biochemical
[2] = biological target: Thermosynechococcus elongatus PKUAC-SCTE542 protoporphyrinogen IX oxidase CyPPO19 (SEQ ID NO: 1) variant V165S (MBP fusion) (Thermosynechococcus sichuanensis, UniProt A0A7D6JSC1, V165S); assay: biochemical; conditions: 50 μM protoporphyrinogen IX, pH 7.5, room temperature, 30 min, 10,000 means equivalent to or higher, read-out: IC50
[3] = biological target: Thermosynechococcus elongatus PKUAC-SCTE542 protoporphyrinogen IX oxidase CyPPO19 (SEQ ID NO: 1) variant A167I (MBP fusion) (Thermosynechococcus sichuanensis, UniProt A0A7D6JSC1, A167I); assay: biochemical; conditions: 50 μM protoporphyrinogen IX, pH 7.5, room temperature, 30 min, 10,000 means equivalent to or higher, read-out: IC50
[4] = tested on: wild type A. thaliana (Col-0); assay: Herbicide injury of wild type A. thaliana (Col-0) after spraying; assay type: in vivo, Arabidopsis thaliana; conditions: 1 μM tiafenacil and 0.05% Silwet L-77, within 7 days
[5] = biological target: Thermosynechococcus elongatus PKUAC-SCTE542 protoporphyrinogen IX oxidase CyPPO19 (SEQ ID NO: 1) variant V305L (MBP fusion) (Thermosynechococcus sichuanensis, UniProt A0A7D6JSC1, V305L); assay: PPO enzyme inhibition assay (IC50 for herbicides), CyPPO19 V305L fused to MBP; assay type: biochemical
[6] = biological target: Thermosynechococcus elongatus PKUAC-SCTE542 protoporphyrinogen IX oxidase CyPPO19 (SEQ ID NO: 1) variant A167L (MBP fusion) (Thermosynechococcus sichuanensis, UniProt A0A7D6JSC1, A167L); assay: biochemical; conditions: 50 μM protoporphyrinogen IX, pH 7.5, room temperature, 30 min, 10,000 means equivalent to or higher, read-out: IC50
[7] = tested on: transgenic A. thaliana (T1) transformed with CyPPO19, CyPPO18 or variant genes; assay: Herbicide tolerance of transgenic A. thaliana (T1 plants); assay type: in vivo, Arabidopsis thaliana; conditions: 1 μM tiafenacil and 0.05% Silwet L-77
From the text: Transgenic plants were screened with glufosinate tolerance which was conferred by Bar gene expression in the binary vector. […] They were, then, transplanted into soil and grown to obtain T1 plants.

[8] = biological target: Thermosynechococcus elongatus PKUAC-SCTE542 protoporphyrinogen IX oxidase CyPPO19 (SEQ ID NO: 1) variant V305M (MBP fusion) (Thermosynechococcus sichuanensis, UniProt A0A7D6JSC1, V305M); assay: PPO enzyme inhibition assay (IC50 for herbicides), CyPPO19 V305M fused to MBP; assay type: biochemical
[9] = biological target: Thermosynechococcus elongatus PKUAC-SCTE542 protoporphyrinogen IX oxidase CyPPO19 (SEQ ID NO: 1) variant V165C (MBP fusion) (Thermosynechococcus sichuanensis, UniProt A0A7D6JSC1, V165C); assay: PPO enzyme inhibition assay (IC50 for herbicides), CyPPO19 V165C fused to MBP; assay type: biochemical
[10] = biological target: Thermosynechococcus elongatus PKUAC-SCTE542 protoporphyrinogen IX oxidase CyPPO19 (SEQ ID NO: 1) variant R89A (MBP fusion) (Thermosynechococcus sichuanensis, UniProt A0A7D6JSC1, R89A); assay: biochemical
[11] = biological target: T1, Thermosynechococcus elongatus PKUAC-SCTE542 protoporphyrinogen IX oxidase CyPPO19, wild type, SEQ ID NO: 1 (MBP fusion) (Thermosynechococcus sichuanensis, UniProt A0A7D6JSC1); assay: PPO enzyme inhibition assay (IC50 for herbicides), CyPPO19 wild type fused to MBP; assay type: biochemical; conditions: CyPPO19 WT; 50 μM protoporphyrinogen IX, pH 7.5, room temperature, 30 min; read-out: IC50
T1 sequence (A0A7D6JSC1 1-467): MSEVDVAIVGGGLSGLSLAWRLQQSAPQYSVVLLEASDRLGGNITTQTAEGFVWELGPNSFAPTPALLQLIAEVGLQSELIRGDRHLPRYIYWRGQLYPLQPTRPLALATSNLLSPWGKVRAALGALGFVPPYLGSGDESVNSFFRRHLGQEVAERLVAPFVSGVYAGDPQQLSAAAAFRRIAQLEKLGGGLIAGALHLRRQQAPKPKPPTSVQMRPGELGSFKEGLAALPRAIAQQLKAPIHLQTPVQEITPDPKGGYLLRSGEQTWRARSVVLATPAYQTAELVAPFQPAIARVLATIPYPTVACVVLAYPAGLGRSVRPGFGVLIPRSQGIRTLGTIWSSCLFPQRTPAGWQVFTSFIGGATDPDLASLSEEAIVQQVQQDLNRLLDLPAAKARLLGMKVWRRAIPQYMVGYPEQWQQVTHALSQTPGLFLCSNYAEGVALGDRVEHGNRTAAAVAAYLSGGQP

Chain of Thermosynechococcus elongatus PKUAC-SCTE542 protoporphyrinogen IX oxidase CyPPO19 (SEQ ID NO: 1) variant R89A (MBP fusion) (A0A7D6JSC1 entry or part of it R89A): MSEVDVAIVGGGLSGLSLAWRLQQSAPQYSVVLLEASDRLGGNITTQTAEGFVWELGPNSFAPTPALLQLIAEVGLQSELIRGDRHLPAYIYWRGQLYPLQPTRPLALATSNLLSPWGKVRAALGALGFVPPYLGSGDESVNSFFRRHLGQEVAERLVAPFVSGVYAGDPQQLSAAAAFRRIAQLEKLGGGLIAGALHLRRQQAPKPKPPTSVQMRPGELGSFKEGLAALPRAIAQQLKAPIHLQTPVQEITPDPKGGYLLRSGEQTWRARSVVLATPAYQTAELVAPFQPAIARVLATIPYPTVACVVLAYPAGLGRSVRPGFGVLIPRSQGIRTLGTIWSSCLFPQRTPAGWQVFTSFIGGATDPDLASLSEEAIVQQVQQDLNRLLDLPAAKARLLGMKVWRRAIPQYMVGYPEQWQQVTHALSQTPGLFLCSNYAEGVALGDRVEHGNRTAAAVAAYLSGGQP
Chain of Thermosynechococcus elongatus PKUAC-SCTE542 protoporphyrinogen IX oxidase CyPPO19 (SEQ ID NO: 1) variant A167L (MBP fusion) (A0A7D6JSC1 entry or part of it A167L): as the sequence (A0A7D6JSC1 entry or part of it R89A) above, with A89R, A167L counted along it
Chain of Thermosynechococcus elongatus PKUAC-SCTE542 protoporphyrinogen IX oxidase CyPPO19 (SEQ ID NO: 1) variant A167I (MBP fusion) (A0A7D6JSC1 entry or part of it A167I): as the sequence (A0A7D6JSC1 entry or part of it R89A) above, with A89R, A167I counted along it
Chain of Thermosynechococcus elongatus PKUAC-SCTE542 protoporphyrinogen IX oxidase CyPPO19 (SEQ ID NO: 1) variant V165C (MBP fusion) (A0A7D6JSC1 entry or part of it V165C): as the sequence (A0A7D6JSC1 entry or part of it R89A) above, with A89R, V165C counted along it
Chain of Thermosynechococcus elongatus PKUAC-SCTE542 protoporphyrinogen IX oxidase CyPPO19 (SEQ ID NO: 1) variant V165S (MBP fusion) (A0A7D6JSC1 entry or part of it V165S): as the sequence (A0A7D6JSC1 entry or part of it R89A) above, with A89R, V165S counted along it
Chain of Thermosynechococcus elongatus PKUAC-SCTE542 protoporphyrinogen IX oxidase CyPPO19 (SEQ ID NO: 1) variant V305L (MBP fusion) (A0A7D6JSC1 entry or part of it V305L): as the sequence (A0A7D6JSC1 entry or part of it R89A) above, with A89R, V305L counted along it
Chain of Thermosynechococcus elongatus PKUAC-SCTE542 protoporphyrinogen IX oxidase CyPPO19 (SEQ ID NO: 1) variant V305M (MBP fusion) (A0A7D6JSC1 entry or part of it V305M): as the sequence (A0A7D6JSC1 entry or part of it R89A) above, with A89R, V305M counted along it
Chain of Thermosynechococcus elongatus PKUAC-SCTE542 protoporphyrinogen IX oxidase CyPPO19 (SEQ ID NO: 1) variant A167C (MBP fusion) (A0A7D6JSC1 entry or part of it A167C): as the sequence (A0A7D6JSC1 entry or part of it R89A) above, with A89R, A167C counted along it

Work on `COC(=O)CCNC(=O)C(C)Sc1cc(-n2c(=O)cc(C(F)(F)F)n(C)c2=O)c(F)cc1Cl` (centres unmarked) [Tiafenacil] yielded an IC50 [1] of 342 nM, an IC50 [2] of 269 nM and an IC50 [3] of 248 nM. The “survival after herbicide treatment” value [4] was “completely died within 7 days”, the IC50 [5] was 1140 nM and the IC50 [6] was 597 nM. For the same compound, the “survival after herbicide treatment” value [7] was “survived”, the IC50 [8] was 392 nM and the IC50 [9] was 186 nM. For the same compound, the IC50 [10] was 113 nM and the IC50 [11] was 67 nM.
